The values below are quoted from earlier work in patent publication US20210393932A1, “DERMAL PATCHES AND GLASS SWABS FOR APPLICATION OF TOPICAL IMMUNOSENSITIZERS” (Squarex, LLC, priority 2020, published 2021).

The test system of this data set is common warts and alopecia areata. As to conditions: solutions of 0.05% to 2.0% weight/volume, vehicle almost always acetone, applied repeatedly (Buckley et al., Lee et al.); cited from earlier work.

On to `O=[N+]([O-])c1ccc(Cl)c([N+](=O)[O-])c1` [DNCB, 1-chloro-2,4-dinitrobenzene], for which the “treatment of common warts and alopecia areata” value was “used successfully”.
With `O=c1c(-c2ccccc2)c1-c1ccccc1` [diphenylcyclopropenone], the “treatment of common warts and alopecia areata” value is listed as “used successfully”.
